Tests used:
[1] = biological target: hDAT (Homo sapiens, UniProt Q01959); assay: Inhibition of [3H]-WIN-35,428 binding to hDAT in N2A neuroblastoma cells
[2] = tested on: DAT; conditions: ref Vaughan et al., unpublished observations; cited from earlier work
[3] = tested on: DAT; conditions: cited from earlier work

Sequence of hDAT (Q01959 whole entry): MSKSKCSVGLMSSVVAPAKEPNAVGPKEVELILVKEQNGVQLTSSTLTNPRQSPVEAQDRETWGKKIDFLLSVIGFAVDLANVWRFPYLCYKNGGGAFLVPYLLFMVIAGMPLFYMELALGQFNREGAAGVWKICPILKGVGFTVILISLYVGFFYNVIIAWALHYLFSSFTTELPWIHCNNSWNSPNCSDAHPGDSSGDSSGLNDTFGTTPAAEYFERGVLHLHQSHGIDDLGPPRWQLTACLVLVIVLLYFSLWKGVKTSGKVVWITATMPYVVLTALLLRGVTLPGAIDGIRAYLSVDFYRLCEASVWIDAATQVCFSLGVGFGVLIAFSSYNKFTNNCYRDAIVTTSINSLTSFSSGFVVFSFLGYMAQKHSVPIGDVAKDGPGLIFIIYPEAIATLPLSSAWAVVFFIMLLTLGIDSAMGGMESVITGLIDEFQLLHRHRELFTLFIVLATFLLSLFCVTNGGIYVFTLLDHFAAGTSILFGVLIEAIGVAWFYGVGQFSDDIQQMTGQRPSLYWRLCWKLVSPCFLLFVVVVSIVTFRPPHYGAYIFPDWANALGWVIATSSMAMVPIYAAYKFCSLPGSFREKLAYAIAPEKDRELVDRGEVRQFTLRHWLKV

COC(=O)[C@H](c1ccc(N=[N+]=[N-])c(I)c1)[C@H]1CCCCN1 (racemic) [(±)-6, (±)-threo-4-Azido-3-iodomethylphenidate]
fold increase in hDAT affinity ([1]; relative to (±)-14 (aniline replaced by azide)): ~ 2.3 fold

COC(=O)[C@H](c1ccc(N)c(I)c1)[C@H]1CCCCN1 (racemic) [(±)-14]
fold decrease in binding affinity for hDAT ([1]; relative to aniline (±)-13 (addition of 3-I)): ~ 1.4 fold

COC(=O)C1C(c2ccc(N=[N+]=[N-])c(I)c2)CC2CCC1N2C (stereo not shown) [compound 5, 3-(4′-azido-3′-iodo-phenyl)-8-methyl-8-aza-bicyclo-[3.2.1]octane-2-carboxylic acid methyl ester]
labeling of the DAT in immunoprecipitation and proteolysis experiments [2]: fails to label the DAT
binding to the DAT [3]: high affinity, wash-resistant binding

From publication PMC3469269 (ACS medicinal chemistry letters, 2012)
